# Values of other authors in US7485427B1, “Photocleavable bioreactive agents” (The Trustees of Boston University, priority 1994, dated 2009).
# Target: avidin (Gallus gallus, UniProt P02701)
# Conditions: binding between avidin and biotin
# Sequence of avidin (P02701 25-152): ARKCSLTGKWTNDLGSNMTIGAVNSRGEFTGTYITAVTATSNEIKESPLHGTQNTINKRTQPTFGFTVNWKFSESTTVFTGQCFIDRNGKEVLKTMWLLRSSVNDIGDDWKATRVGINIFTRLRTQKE
compound,measurement,value
O=C(O)CCCC[C@@H]1SC[C@@H]2NC(=O)N[C@@H]21 [biotin],association constant (Ka),about 10^15 M^−1
